Results published in patent US4460596A, “Thienyloxazolylacetic acid derivatives and process for preparing” (Tanabe Seiyaku Co., Ltd., priority 1981, dated 1984).

Assays:
[1] = system: blood platelets (PRP); experiment: Platelet aggregation-inhibiting activity in vitro (collagen, rat platelet-rich plasma); assay type: cell-based, male SD rats; settings: final concentration 100 μg/ml, 37° C.
Procedure: (Platelet aggregation-inhibiting activity)
Blood was collected from the abdominal aorta of male SD rats (body weight: 250-300 g) which were anesthetized with ether. Nine volumes of said blood were mixed with one volume of an aqueous 3.8% (w/v) trisodium citrate solution, and the mixture was centrifuged at 500×g for 5 minutes to give platelet-rich plasma (hereinafter referred to as "PRP") as the supernatant solution. The bottom layer was further centrifuged at 1000×g for 10 minutes to give platelet-poor plasma (hereinafter referred to as "PPP") as the supernatant solution. PRP was diluted with PPP so that the blood platelet count was 8-10×10^5 /mm^3. Then, a mixture of 200 μl of said diluted PRP and 25 μl of a test compound solution (final concentration: 100 μg/ml) was introduced into a glass cell of SIENCO aggregometer (Sienco Inc., Morrison, Colo. Model DP-247-D). After the mixture was stirred at 1100 rpm at 37° C. for 2 minutes, 25 μl of a collagen solution (prepared by Holmsen's method described in Biochim. Biophys. Acta, Vol. 186, page 254(1969)) was added thereto, and the percentage inhibition of platelet aggregation was calculated in accordance with the following formula from the degree of the platelet aggregation which was estimated by Born's method (Nature, 194, page 927([…])). [formula]

[2] = Increase in liver weight in rats (one-week diet); assay type: in vivo; settings: male SD rats, 50 mg % in diet
Procedure: (§1) A test compound (50 mg %) was added to a commercial diet, and male SD rats (body weight: 120-140 g, a group of 5 rats) were fed with the diet ad libitum for one week. After the experimental period, blood was collected from the tail vein of the rats under ether anesthesia. Serum cholesterol and serum triglyceride were measured according to the methods of Zak (Amer. J. Clin. Pathol., Vol. 24, page 1307(1954)) and Van Handel-Zilversmit (J. Lab. & Clin. Med., Vol. 55, page 152(1957)), respectively. Then, the increase (%) in liver weight and the decrease (%) in serum cholesterol or triglyceride were calculated according to the following formulae: [formula]

[3] = system: serum cholesterol and serum triglyceride; experiment: Hypolipidemic activity in rats (serum cholesterol and triglyceride, one-week diet); assay type: in vivo; settings: male SD rats, 50 mg % in diet
Procedure: as §1

[4] = system: platelet aggregation; experiment: Platelet aggregation-inhibiting activity after oral administration (ex vivo); assay type: in vivo; settings: 100 mg/kg, one hour after administration, male SD rats, collagen

SMILES	inhibition at 100 µg/mL [1] [%]	increase (%) in liver weight [2] [%]	Decrease (%) in serum cholesterol [3] [%]	Decrease (%) in serum triglyceride [3] [%]	Percentage inhibition of platelet aggregation [4] [%]
CCOC(=O)C(C)(C)Oc1ccc(Cl)cc1 [Clofibrate, 2-(4-chlorophenoxy)-2-methylpropanoic acid ethyl ester, reference compound]	< 10	12	15	16	
O=C(O)Cc1nc(-c2ccc(F)cc2)oc1-c1ccsc1 [2-[2-(4-fluorophenyl)-5-(3-thienyl)-4-oxazolyl]acetic acid]	≥ 10		23	39	93 ± 6
CCCCCOC(=O)Cc1nc(-c2ccccc2)oc1-c1ccsc1 [n-pentyl 2-[2-phenyl-5-(3-thienyl)-4-oxazolyl]acetate]	≥ 10		20	30	
CCOC(=O)Cc1nc(-c2ccc(F)cc2)oc1-c1ccsc1 [ethyl 2-[2-(4-fluorophenyl)-5-(3-thienyl)-4-oxazolyl]acetate]	≥ 10		19	31	
O=C(O)Cc1nc(-c2ccc(F)cc2)oc1-c1cccs1 [2-[2-(4-fluorophenyl)-5-(2-thienyl)-4-oxazolyl]acetic acid]	≥ 10		17	27	
CCCCCOC(=O)Cc1nc(-c2ccc(Cl)cc2)oc1-c1ccsc1 [n-pentyl 2-[2-(4-chlorophenyl)-5-(3-thienyl)-4-oxazolyl]acetate]			19	45	
CCOC(=O)Cc1nc(-c2ccc(F)cc2)oc1-c1cccs1 [ethyl 2-[2-(4-fluorophenyl)-5-(2-thienyl)-4-oxazolyl]acetate]	≥ 10		17	43	
O=C(O)Cc1nc(-c2ccc(Cl)cc2)oc1-c1ccsc1 [2-[2-(4-chlorophenyl)-5-(3-thienyl)-4-oxazolyl]acetic acid]	≥ 10		18	49	
